From US20240287121A1, “GALECTIN-3 INHIBITING C-GLYCOSIDE OXIMES” (GLYCOMIMETICS, INC., priority 2021, published 2024)

Target: T1, galectin-3 (Homo sapiens, UniProt P17931)
T1 construct: purchased IBL IBATGPO414
Assay: Galectin-3 Activity ELISA assay: inhibition of binding of galectin-3 to immobilized Galβ1-3GlcNAc polymer
Conditions: competitive ELISA; Galβ1-3GlcNAc polymer on streptavidin plate; A450 readout; read-out: Galectin-3 Antagonist Activity IC50
Text: An inhibition assay may be used to screen for antagonists of galectin-3. For example, an assay may be performed to characterize the capability of a compound described herein to inhibit interaction of galectin-3 with a Galβ1-3GlcNAc carbohydrate structure. The inhibition assay may be a competitive binding assay, which allows the determination of IC50 values. By way of example, a Galβ1-3GlcNAc polymer may be immobilized onto a matrix; a composition may be added to reduce nonspecific binding; the immobilized Galβ1-3GlcNAc polymer may be contacted with the candidate compound in the presence of galectin-3 group under conditions and for a time sufficient to permit galectin-3 to bind to the immobilized Galβ1-3GlcNAc polymer; the immobilized Galβ1-3GlcNAc polymer may be washed; and the amount of galectin-3 bound to the immobilized Galβ1-3GlcNAc polymer may be detected. Variations of such steps can be readily and routinely accomplished by a person of ordinary skill in the art.
Galectin-3 antagonists were evaluated for their ability to inhibit binding of galectin-3 to a Galβ1-3GlcNAc carbohydrate structure. The detailed protocol was as follows. A 1 μg/mL suspension of a Galβ1-3GlcNAcβ-3Galβ1-4GlcNAcβ-PAA-biotin polymer (Glycotech, catalog number 01-096) was prepared. A 100 μL aliquot of the polymer was added to the wells of a 96-well streptavidin-coated plate (R&D Systems, catalog number CP004). A 100 μL aliquot of 1× Tris Buffered Saline (TBS, Sigma, catalog number T5912-10×) was added to control wells. The polymer was allowed to bind to the streptavidin-coated wells for 1.5 hours at room temperature. The contents of the wells were discarded and 200 μL of 1×TBS containing 1% bovine serum albumin (BSA) was added to each well as a blocking reagent, and the plate was kept at room temperature for 30 minutes. The wells were washed three times with 1×TBS containing 0.1% BSA. A serial dilution of test compounds was prepared in a separate V-bottom plate (Corning, catalog number 3897). A 75 μL aliquot of the highest concentration of the compound to be tested was added to the first well in a column of the V-bottom plate, then 15 μl were serially transferred into 60 μL 1×TBS through the remaining wells in the column to generate a 1 to 5 serial dilution. A 60 μL aliquot of 2 ug/mL galectin-3 (IBL, catalog number IBATGPO414) was added to each well in the V-bottom plate. A 100 μL aliquot of the galectin-3/test compound mixture was transferred from the V-bottom plate into the assay plate containing the Galβ1-3GlcNAc polymer. Four sets of control wells in the assay plate were prepared in duplicate containing 1) both Galβ1-3GlcNAc polymer and galectin-3, 2) neither the polymer nor galectin-3, 3) galectin-3 only, no polymer, or 4) polymer only, no galectin-3. The plate was gently rocked for 1.5 hours at room temperature. The wells were washed four times with TBS/0.1% BSA. A 100 μL aliquot of anti-galectin-3 antibody conjugated to horse radish peroxidase (R&D Systems, from DGAL30 kit) was added to each well and the plate was kept at room temperature for 1 hour. The wells were washed four times with TBS/0.1% BSA. A 100 μL aliquot of TMB substrate solution was added to each well. The TMB substrate solution was prepared by making a 1:1 mixture of TMB Peroxidase Substrate (KPL, catalog number 5120-0048) and Peroxidase Substrate Solution B (KPL, catalog number 5120-0037). The plate was kept at room temperature for 10 to 20 minutes. The color development was stopped by adding 100 μL 10% phosphoric acid (RICCA Chemical Co., catalog number 5850-16). The absorbance at 450 nm (A450) was measured using a FlexStation 3 plate reader (Molecular Devices). Plots of A450 versus test compound concentration and IC50 determinations were made using GraphPad Prism 6.

T1 sequence (P17931 whole entry): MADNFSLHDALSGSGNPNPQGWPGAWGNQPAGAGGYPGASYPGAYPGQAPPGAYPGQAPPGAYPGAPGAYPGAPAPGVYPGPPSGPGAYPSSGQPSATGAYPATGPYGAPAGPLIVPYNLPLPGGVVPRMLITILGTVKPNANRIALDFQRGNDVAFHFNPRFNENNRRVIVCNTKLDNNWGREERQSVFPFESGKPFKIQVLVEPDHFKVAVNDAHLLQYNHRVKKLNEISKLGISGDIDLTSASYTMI

SMILES | IC50 [µM]
[2H]C([2H])([2H])OC1C(n2cc(-c3cc(F)c(F)c(F)c3)nn2)[C@@H](O)C(CO)O[C@H]1[C@H](OCc1ccc(Cl)cc1)C(C)=NOCC1CC1 (stereo partly shown) [Compound 37] | 10.6
[2H]C([2H])([2H])OC1C(n2cc(-c3cc(F)c(F)c(F)c3)nn2)[C@@H](O)C(CO)O[C@H]1[C@H](OCc1ccc(Cl)cc1)C(C)=NOCC (stereo partly shown) [Compound 36] | 10.3
CCC(=NOCC1CC1)[C@@H](OCc1ccc(Cl)cc1)[C@@H]1OC(CO)[C@H](O)C(n2cc(-c3cc(F)c(F)c(F)c3)nn2)C1O (stereo partly shown) [Compound 41] | 2.8
[2H]C([2H])([2H])OC1C(n2cc(-c3cc(F)c(F)c(F)c3)nn2)[C@@H](O)C(CO)O[C@H]1[C@H](OCc1ccc(Cl)cc1)C(C)=NOCC(C)C (stereo partly shown) [Compound 38] | 16.7

Continued by falling IC50, values first:

IC50 [µM] | SMILES
6.9 | [2H]C([2H])([2H])OC1C(n2cc(-c3cc(F)cc(F)c3)nn2)[C@@H](O)C(CO)O[C@H]1[C@H](OCc1ccc(Cl)cc1)/C(=N/OC)C([2H])([2H])C([2H])([2H])[2H] (stereo partly shown) [Compound 35]
0.9 | CCON=C(CC)C(OCc1ccc(Cl)cc1)C1OC(CO)C(O)C(n2cc(-c3cc(F)c(F)c(F)c3)nn2)C1O (stereo not shown) [Compound 40]
0.5 | CCC(=NOC)[C@@H](OCc1ccc(Cl)cc1)[C@@H]1OC(CO)[C@H](O)C(n2cc(-c3cc(F)c(F)c(F)c3)nn2)C1O (stereo partly shown) [Compound 34]
